Here are results for seven compounds from ChEMBL document CHEMBL1134018, “Study of aminoglycoside-nucleic acid interactions by an HPLC method” (Bioorg Med Chem Lett, 2001).

Assay [1] concerns Nucleic Acid. Briefly: Percent of interaction with wheat germ tRNA (type V) at a concentration of 35 uM. It is filed as functional. The note with it: Triticum aestivum.
In assay [2] the test system is Nucleic Acid. As to the kind of experiment: Percent of interaction with calf thymus DNA (activated type XV) at a concentration of 35 uM. Type of assay: functional. The note with it: Bos taurus.

The structures appear in SMILES notation.

For `CCN[C@@H]1C[C@H](N)[C@@H](O[C@H]2OC(CN)=CC[C@H]2N)[C@H](O)[C@H]1O[C@H]1OC[C@](C)(O)[C@H](NC)[C@H]1O`, the tRNA peak exclusion with Nucleic Acid [1] amounted to 55.1%. For the same compound, the DNA peak exclusion with Nucleic Acid [2] is 68.8%.

With `NC[C@@H]1O[C@@H](O[C@H]2[C@H](O)[C@@H](O[C@H]3O[C@H](CO)[C@@H](O)[C@H](N)[C@H]3O)[C@H](N)C[C@@H]2N)[C@@H](O)[C@H](O)[C@H]1O`, the tRNA peak exclusion in the assay with Nucleic Acid [1] worked out at 56%. In the assay on Nucleic Acid [2], this compound registered a DNA peak exclusion of 67.3%.

In the assay on Nucleic Acid [1], `CN[C@@H]1[C@H](O[C@H]2[C@H](O[C@H]3[C@H](O)[C@@H](O)[C@H](N=C(N)N)[C@@H](O)[C@@H]3N=C(N)N)O[C@@H](C)[C@]2(O)C=O)O[C@@H](CO)[C@H](O)[C@H]1O` had a tRNA peak exclusion of 52.5%. Besides, in the assay on Nucleic Acid [2], the DNA peak exclusion is 44.3%.

For `NC[C@H]1OC(O[C@H]2[C@H](O)C(O)[C@H](N)C[C@@H]2N)C(N)[C@@H](O)[C@@H]1O` (single isomer, unassigned), the tRNA peak exclusion with Nucleic Acid [1] was determined as 47.3%. For the same compound, the DNA peak exclusion in the assay with Nucleic Acid [2] was found to be 40%.

In the assay with Nucleic Acid [1], `NC[C@@H]1O[C@H](O[C@H]2[C@@H](O)[C@H](O[C@@H]3[C@@H](O)[C@H](N)C[C@H](N)[C@H]3O[C@H]3O[C@H](CN)[C@@H](O)[C@H](O)[C@H]3N)O[C@@H]2CO)[C@H](N)[C@@H](O)[C@@H]1O` returned a tRNA peak exclusion of 77.8%. The same compound registered a DNA peak exclusion in the assay on Nucleic Acid [2] of 100%.

As to `NC(Cc1ccccc1)C(=O)NCC1O[C@@H](O[C@@H]2C(N)C[C@@H](N)[C@@H](O)C2O)[C@@H](N)C(O)[C@@H]1O` (stereo partly drawn), the tRNA peak exclusion in the assay with Nucleic Acid [1] came out at 100%. Also, the DNA peak exclusion in the assay with Nucleic Acid [2] worked out at 100%.

For `NC1C[C@@H](N)C(O)[C@@H](O)[C@@H]1O` (single isomer, unassigned), the tRNA peak exclusion with Nucleic Acid [1] is 30.3%.
